ChEMBL document CHEMBL1156089, “Anthranilic sulfonamide CCK1/CCK2 dual receptor antagonists I: discovery of CCKR1 selectivity in a previously CCKR2-selective lead series” (Bioorg Med Chem Lett, 2009)

Key:
[1] = molecular target: T1, Cholecystokinin receptor type A (Homo sapiens, UniProt P32238); test: Displacement of [125I]-CCK-8S from CCK1R after 100 mins by liquid scintillation counting
T1 sequence (P32238 whole entry): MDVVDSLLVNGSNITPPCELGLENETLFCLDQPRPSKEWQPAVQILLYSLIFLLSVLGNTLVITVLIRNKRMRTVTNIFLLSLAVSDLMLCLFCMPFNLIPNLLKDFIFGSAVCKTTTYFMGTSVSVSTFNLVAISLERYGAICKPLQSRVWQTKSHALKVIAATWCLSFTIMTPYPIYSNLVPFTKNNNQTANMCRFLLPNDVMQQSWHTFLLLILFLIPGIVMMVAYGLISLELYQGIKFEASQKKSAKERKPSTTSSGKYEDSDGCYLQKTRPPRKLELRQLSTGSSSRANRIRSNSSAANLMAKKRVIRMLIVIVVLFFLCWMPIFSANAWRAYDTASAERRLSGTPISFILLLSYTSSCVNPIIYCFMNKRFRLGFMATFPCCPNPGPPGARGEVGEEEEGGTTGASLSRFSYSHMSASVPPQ

[2] = molecular target: T2, Gastrin/cholecystokinin type B receptor (Homo sapiens, UniProt P32239); test: Displacement of [125I]-CCK-8S from CCK2R after 100 mins by liquid scintillation counting
T2 sequence (P32239 whole entry): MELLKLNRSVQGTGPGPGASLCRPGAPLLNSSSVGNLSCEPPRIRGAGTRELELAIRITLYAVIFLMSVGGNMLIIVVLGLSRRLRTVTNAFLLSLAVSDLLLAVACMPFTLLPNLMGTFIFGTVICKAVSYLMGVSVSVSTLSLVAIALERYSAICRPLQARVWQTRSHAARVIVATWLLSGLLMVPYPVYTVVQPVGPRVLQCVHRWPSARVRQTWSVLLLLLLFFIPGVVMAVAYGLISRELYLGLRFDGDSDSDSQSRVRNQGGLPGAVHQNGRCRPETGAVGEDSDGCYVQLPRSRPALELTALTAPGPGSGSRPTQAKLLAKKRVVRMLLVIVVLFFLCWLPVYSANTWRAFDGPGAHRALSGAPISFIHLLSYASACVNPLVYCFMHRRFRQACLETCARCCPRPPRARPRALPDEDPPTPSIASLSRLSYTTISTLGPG

Ki [1] [nM] | Ki [2] [nM] | SMILES
> 10000 |  | O=C(NCc1ccccc1)c1ccc(Cl)cc1NS(=O)(=O)c1cccc2nsnc12
398 | 631 | O=C(NCCc1ccccc1)c1ccc(Br)cc1NS(=O)(=O)c1cccc2nsnc12
3980 | 79.4 | O=C(N[C@@H](Cc1ccccc1)C(=O)O)c1ccc(Cl)cc1NS(=O)(=O)c1cccc2nsnc12
> 10000 |  | O=C(N[C@H](C(=O)O)C(c1ccc(Cl)cc1)c1ccc(Cl)cc1)c1ccc(Cl)cc1NS(=O)(=O)c1cccc2nsnc12
158 | 6310 | O=C(NCCc1ccccc1)c1ccc(Cl)cc1NS(=O)(=O)c1cccc2nsnc12
316 | 631 | O=C(N[C@H](Cc1ccc(Cl)cc1)C(=O)O)c1ccc(Cl)cc1NS(=O)(=O)c1cccc2nsnc12
200 | 1580 | C[C@H](c1ccc(Cl)c(Cl)c1)[C@@H](NC(=O)c1ccc(Cl)cc1NS(=O)(=O)c1cccc2nsnc12)C(=O)O
3160 | 158 | O=C(N[C@H](Cc1ccccc1)C(=O)O)c1ccc(Cl)cc1NS(=O)(=O)c1cccc2nsnc12
79.4 | 7940 | O=C(NCCc1ccc(Cl)c(Cl)c1)c1ccc(Cl)cc1NS(=O)(=O)c1cccc2nsnc12
 | 1000 | CC(C)(c1ccc(Cl)cc1)[C@H](NC(=O)c1ccc(Cl)cc1NS(=O)(=O)c1cccc2nsnc12)C(=O)O
1000 | > 10000 | O=C(NCCc1ccc(Cl)cc1)c1ccc(Cl)cc1NS(=O)(=O)c1cccc2nsnc12
3980 | 316 | CN(CCc1ccccc1)C(=O)c1ccc(Cl)cc1NS(=O)(=O)c1cccc2nsnc12
2000 | 1000 | O=C(NCCCc1ccccc1)c1ccc(Cl)cc1NS(=O)(=O)c1cccc2nsnc12
 | > 10000 | O=C(NCC(c1ccc(Cl)cc1)c1ccc(Cl)cc1)c1ccc(Cl)cc1NS(=O)(=O)c1cccc2nsnc12
2000 | 63.1 | O=C(N[C@@H](Cc1ccc(Cl)cc1)C(=O)O)c1ccc(Cl)cc1NS(=O)(=O)c1cccc2nsnc12
100 |  | CC(CNC(=O)c1ccc(Cl)cc1NS(=O)(=O)c1cccc2nsnc12)c1ccc(Cl)cc1 (racemic)
